In one test the target is T1, TmaFuc (Thermotoga maritima, UniProt Q9WYE2).
T1 sequence (Q9WYE2 1-449): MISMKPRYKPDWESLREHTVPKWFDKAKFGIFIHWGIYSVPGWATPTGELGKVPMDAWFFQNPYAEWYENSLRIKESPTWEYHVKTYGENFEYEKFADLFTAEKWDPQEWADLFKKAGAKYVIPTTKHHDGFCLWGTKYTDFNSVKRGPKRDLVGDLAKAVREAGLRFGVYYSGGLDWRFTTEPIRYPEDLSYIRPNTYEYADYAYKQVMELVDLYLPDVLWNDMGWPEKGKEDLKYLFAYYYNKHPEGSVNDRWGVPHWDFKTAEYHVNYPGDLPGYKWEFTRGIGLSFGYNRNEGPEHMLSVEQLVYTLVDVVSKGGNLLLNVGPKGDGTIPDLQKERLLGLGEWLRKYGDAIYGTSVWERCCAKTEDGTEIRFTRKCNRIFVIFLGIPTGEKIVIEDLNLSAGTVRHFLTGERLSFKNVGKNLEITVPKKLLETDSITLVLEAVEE
The experiment in a line: p-nitrophenol release at […] nm. The class given is biochemical. The following applies: 2 mM substrate.

In another test the target is T2, ClAgl29B (Cecembia lonarensis, UniProt K1KV82).
T2 sequence (K1KV82 21-586): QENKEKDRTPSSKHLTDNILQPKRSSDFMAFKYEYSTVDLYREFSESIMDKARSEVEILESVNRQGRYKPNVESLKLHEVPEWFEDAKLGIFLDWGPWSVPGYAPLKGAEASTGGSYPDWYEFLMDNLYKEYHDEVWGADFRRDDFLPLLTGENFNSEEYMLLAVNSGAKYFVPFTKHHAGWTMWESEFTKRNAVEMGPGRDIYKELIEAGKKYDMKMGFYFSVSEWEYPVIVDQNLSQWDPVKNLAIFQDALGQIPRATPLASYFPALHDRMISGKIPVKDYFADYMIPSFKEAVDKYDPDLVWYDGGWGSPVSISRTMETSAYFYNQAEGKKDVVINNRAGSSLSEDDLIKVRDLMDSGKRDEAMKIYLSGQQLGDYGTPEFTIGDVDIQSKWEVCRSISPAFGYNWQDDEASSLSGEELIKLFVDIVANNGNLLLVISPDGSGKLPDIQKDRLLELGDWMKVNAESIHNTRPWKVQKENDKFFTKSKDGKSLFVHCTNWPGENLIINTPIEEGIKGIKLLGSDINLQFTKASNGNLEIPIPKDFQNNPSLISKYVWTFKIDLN
Briefly: X-ray crystal structure, […] Å, soaking. Type of test: binding. The note with it: active site; crystal pH 3.5, 30 mM L-glucose soak.

Turning to `C[C@@H]1O[C@@H](Oc2ccc([N+](=O)[O-])cc2)[C@@H](O)[C@H](O)[C@@H]1O` [PNP α-L-Fuc], at TmaFuc, the “p-nitrophenol release at 400 nm” value was “TmaFuc hydrolyzed PNP α-L-Fuc”.
Turning to `OC[C@@H]1O[C@H](O)[C@@H](O)[C@H](O)[C@H]1O` [β-L-glucose], on ClAgl29B, the “X-ray crystal structure, 1.7 Å, soaking” value was “The ClAgl29B complex obtained with β-L-glucose by a soaking experiment”.
